Key:
hERG potassium channel = hERG potassium channel (Homo sapiens (Human), UniProt Q12809); assay: hERG potassium channel current, manual patch clamp; assay type: cell-based; details: HEK293 cells overexpressing hERG potassium channel, whole-cell patch clamp; read-out: IC50 (μM) inhibiting hERG current
Protocol: Effects of compounds H07, H12, H14, H25, H30, H39 and H44 on hERG potassium channel were detected by applying electrophysiological manual patch clamp to study an initial cardiac safety of the compounds of the invention.
Test compounds were dissolved in dimethyl sulfoxide to prepare mother solutions (10 mM, 3.3 mM, 1.1 mM and 0.37 mM). Next an extracellular fluid was used for secondary dilution so that the test solution had final concentrations of 30 μM, 10 μM, 3.3 μM, 1.1 μM and 0.37 μM.
Extracellular fluids: 130 mM sodium chloride, 4 mM potassium chloride, 1.8 mM calcium chloride, 1 mM magnesium chloride, 10 mM glucose, 10 mM 4-hydroxyethylpiperazine ethane sulfonic acid (pH 7.4)
Intracellular fluid: 130 mM potassium chloride, 1 mM magnesium chloride, 5 mM ethylene glycol diethyl ether diamine tetraacetic acid, 5 mM triphosadenine and 10 mM 4-hydroxyethylpiperazine ethane sulfonic acid (pH7.2)
Compositions of a cell culture medium: Dulbecco's modified eagle medium (Grand Turk Island Biotechnology Company, 11330032), 15% fetal calf serum (Sigma, A15-101, USA), 1% penicillin-streptomycin (Biowest, L0022-100).
HEK293 cells overexpressing hERG potassium channel (from Dr. Mohamed Boutjdir's laboratory, School of Medicine, New York University—PharmaCore Labs, Inc.) were incubated in a medium consisting of Dulbecco's modified eagle medium/15% fetal calf serum/1% penicillin-streptomycin in a 5% CO2 incubator at 37° C. In the test, the cells were transferred to a cell bath embedded into a inverted microscope platform, and extracellular fluid was perfused. After stabilization for 5 minutes, the cells were precipitated and then the test could start. Membrane currents were recorded by using HEKA EPC-10 patch clamp amplifier and […] acquisition system (HEKA Instrument Co., Ltd., D-67466 Lambrcht, Palatinate, Germany). All tests were completed at room temperature (22-24° C.). P-97 microelectrode puller (Sutter Instrument Company, Novato, […] 94949) was used to straighten the electrodes (BF150-110-10). The inner diameter of the electrode was 1-1.5 mm, and the water resistance after internal liquid filling was 2-4 MΩ.
Tests were carried out in whole-cell recording mode, with current values recorded according to the electrophysiological stimulation protocol below. First, the membrane voltage was clamped at −80 mV, and the cells were stimulated with +20 mV for two seconds to activate hERG potassium channel, which was then repolarized to −50 mV for five seconds, producing an outward tail current with a stimulation frequency of every 15 seconds. The current value was a peak value of the tail current. In the test, the channel current was recorded in the whole-cell recording mode. First, extracellular fluid (about 2 ml per minute) was perfused and recorded continuously, and then the current was allowed to stabilize (current decay (run-down) was less than 5% within 5 minutes). At this time, the peak value of the tail current was the control current value. Subsequently, the extracellular fluid containing the drug to be tested was perfused and recorded continuously until the inhibiting effect of drug on hERG current reached a stable state, at which time the peak value of the tail current was the current value after adding drugs. After a stable situation was achieved, if hERG current recovered after perfusing and washing with extracellular fluid, perfusion could be continued to test other concentrations or drugs. The solution containing the drugs to be tested was perfused in descending order of concentration and the current values were recorded. […] V2X60 (HEKA Instrument Co., Ltd., D-67466 Lambrcht, Palatinate, Germany) was used to collect data. ORANGE 8.5 (ORANGE Laboratory Company, Northampton, UK) software was used for the analysis and statistics.

Sprague-Dawley (SD) mice = assay: Concanavalin-induced paw swelling in mice; assay type: in vivo; details: 10 mg/kg intragastric; for Paw swelling rate_1 h (%): 1 h; for Paw swelling rate_2 h (%): 2 h; for Paw swelling rate_4 h (%): 4 h; for Paw swelling rate_6 h (%): 6 h
Protocol: The inhibiting effects of compounds H13, H14, H09, H11 and compounds of Example 12 on paw swelling in […] were determined after intragastric administration by using Sprague-Dawley (SD) […] (ShanghaiSippr-BK laboratory animal Co. Ltd.), aged 6-7 weeks and weighing 160-180 g as test animals. The anti-inflammatory pharmacodynamics characteristic of the compounds of the invention was discussed.
A certain amount of compounds were taken and dissolved in 4% Tween 80/0.5% hydroxy propyl methyl cellulose solution.
Mice were given compounds H01, H07, H11, H12, H14, H15, H22, H25, H29, H30, H33, H39, and H44 and the positive drug indomethacin (Diamond Reagent Co., Ltd., China) by intragastric administration at the dosages shown in the table below and 0.1 ml 0.03% (W/V) concanavalin was injected subcutaneously into the plantar 0.5 h later. A paw volume was measured with a paw swelling meter before modeling and 1 h, 2 h, 4 h and 6 h after modeling. According to the formula: paw swelling rate=(paw volume after administration−basic paw volume)/basic paw volume×100, the inhibiting effect of the compounds on paw volume was calculated. The basic paw volume was a paw volume before administration.

JAK2 = JAK2 (Homo sapiens (Human), UniProt O60674); assay: JAK2 LANCE Ultra kinase assay; assay type: biochemical; details: 12 uM ATP
JAK1 = JAK1 (Homo sapiens (Human), UniProt P23458); assay: JAK1 LANCE Ultra kinase assay; assay type: biochemical; details: for IC50: 38 uM ATP; for JAK2/JAK1: ratio of IC50 JAK2 to IC50 JAK1
In short: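 JAK1 preincubated with compound 10 min at room temperature, then ULight-JAK-1 peptide/ATP added for 90 min at room temperature; stopped with EDTA, Eu-W1024 anti-phosphotyrosine TR-FRET read after 60 min. Inhibition normalised to DMSO and blank wells; IC50 from curve fit.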

JAK2, sequence (O60674 whole entry): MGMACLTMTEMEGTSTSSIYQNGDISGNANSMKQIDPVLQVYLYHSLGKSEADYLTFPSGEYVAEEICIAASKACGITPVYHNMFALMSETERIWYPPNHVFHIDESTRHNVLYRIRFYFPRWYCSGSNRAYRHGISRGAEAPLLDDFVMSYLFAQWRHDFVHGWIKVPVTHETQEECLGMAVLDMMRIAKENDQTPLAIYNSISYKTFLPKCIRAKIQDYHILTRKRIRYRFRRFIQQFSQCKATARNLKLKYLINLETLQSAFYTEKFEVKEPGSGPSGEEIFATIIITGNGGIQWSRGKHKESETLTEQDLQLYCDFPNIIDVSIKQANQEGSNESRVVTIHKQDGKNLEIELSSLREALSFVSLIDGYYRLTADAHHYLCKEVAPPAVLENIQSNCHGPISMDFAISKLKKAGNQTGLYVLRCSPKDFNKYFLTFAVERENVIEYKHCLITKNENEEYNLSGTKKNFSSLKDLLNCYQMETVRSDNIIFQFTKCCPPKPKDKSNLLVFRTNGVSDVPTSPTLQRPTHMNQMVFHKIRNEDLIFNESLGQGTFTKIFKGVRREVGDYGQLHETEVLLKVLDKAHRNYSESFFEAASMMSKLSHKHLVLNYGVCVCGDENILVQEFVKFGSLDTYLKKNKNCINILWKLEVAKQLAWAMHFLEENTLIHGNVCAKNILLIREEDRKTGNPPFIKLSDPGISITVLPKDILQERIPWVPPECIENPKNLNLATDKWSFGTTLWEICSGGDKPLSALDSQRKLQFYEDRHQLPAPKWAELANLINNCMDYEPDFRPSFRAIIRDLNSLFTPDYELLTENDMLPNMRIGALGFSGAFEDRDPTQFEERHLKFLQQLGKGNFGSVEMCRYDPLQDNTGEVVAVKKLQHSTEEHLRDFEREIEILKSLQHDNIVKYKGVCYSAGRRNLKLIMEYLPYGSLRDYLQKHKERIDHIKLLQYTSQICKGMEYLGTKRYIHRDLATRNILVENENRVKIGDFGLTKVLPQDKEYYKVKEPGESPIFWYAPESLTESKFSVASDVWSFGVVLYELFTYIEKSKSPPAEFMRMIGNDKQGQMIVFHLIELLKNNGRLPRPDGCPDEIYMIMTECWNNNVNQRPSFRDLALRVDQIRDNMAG
hERG potassium channel, sequence (Q12809 whole entry): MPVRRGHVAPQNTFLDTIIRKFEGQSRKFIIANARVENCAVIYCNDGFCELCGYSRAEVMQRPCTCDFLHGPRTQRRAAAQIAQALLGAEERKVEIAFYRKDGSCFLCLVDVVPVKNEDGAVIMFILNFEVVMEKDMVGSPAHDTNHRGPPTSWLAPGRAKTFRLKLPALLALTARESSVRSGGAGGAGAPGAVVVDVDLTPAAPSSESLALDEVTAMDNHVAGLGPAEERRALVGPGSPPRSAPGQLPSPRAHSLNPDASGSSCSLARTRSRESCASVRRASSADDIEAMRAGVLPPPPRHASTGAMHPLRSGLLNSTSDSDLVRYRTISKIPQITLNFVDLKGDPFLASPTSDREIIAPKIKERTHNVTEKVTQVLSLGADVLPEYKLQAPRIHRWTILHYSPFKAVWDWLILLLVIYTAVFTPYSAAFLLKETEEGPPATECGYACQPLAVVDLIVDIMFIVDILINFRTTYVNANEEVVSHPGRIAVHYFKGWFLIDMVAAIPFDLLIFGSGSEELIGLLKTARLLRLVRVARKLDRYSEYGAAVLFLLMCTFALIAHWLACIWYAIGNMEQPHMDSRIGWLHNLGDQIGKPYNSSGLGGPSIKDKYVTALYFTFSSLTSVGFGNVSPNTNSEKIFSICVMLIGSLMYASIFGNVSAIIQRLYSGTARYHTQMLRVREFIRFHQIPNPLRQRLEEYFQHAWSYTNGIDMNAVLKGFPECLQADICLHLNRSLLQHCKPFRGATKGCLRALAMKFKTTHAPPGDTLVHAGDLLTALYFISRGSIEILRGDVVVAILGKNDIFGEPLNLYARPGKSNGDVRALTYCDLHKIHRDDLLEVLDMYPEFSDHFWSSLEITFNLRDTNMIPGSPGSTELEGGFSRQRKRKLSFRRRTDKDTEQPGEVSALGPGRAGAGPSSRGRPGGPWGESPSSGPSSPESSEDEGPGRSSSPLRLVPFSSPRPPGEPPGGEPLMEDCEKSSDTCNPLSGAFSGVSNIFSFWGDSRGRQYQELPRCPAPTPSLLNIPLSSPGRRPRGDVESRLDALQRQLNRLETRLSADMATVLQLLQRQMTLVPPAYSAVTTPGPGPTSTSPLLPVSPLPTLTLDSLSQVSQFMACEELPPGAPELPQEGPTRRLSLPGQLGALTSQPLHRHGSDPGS
JAK1, sequence (P23458 whole entry): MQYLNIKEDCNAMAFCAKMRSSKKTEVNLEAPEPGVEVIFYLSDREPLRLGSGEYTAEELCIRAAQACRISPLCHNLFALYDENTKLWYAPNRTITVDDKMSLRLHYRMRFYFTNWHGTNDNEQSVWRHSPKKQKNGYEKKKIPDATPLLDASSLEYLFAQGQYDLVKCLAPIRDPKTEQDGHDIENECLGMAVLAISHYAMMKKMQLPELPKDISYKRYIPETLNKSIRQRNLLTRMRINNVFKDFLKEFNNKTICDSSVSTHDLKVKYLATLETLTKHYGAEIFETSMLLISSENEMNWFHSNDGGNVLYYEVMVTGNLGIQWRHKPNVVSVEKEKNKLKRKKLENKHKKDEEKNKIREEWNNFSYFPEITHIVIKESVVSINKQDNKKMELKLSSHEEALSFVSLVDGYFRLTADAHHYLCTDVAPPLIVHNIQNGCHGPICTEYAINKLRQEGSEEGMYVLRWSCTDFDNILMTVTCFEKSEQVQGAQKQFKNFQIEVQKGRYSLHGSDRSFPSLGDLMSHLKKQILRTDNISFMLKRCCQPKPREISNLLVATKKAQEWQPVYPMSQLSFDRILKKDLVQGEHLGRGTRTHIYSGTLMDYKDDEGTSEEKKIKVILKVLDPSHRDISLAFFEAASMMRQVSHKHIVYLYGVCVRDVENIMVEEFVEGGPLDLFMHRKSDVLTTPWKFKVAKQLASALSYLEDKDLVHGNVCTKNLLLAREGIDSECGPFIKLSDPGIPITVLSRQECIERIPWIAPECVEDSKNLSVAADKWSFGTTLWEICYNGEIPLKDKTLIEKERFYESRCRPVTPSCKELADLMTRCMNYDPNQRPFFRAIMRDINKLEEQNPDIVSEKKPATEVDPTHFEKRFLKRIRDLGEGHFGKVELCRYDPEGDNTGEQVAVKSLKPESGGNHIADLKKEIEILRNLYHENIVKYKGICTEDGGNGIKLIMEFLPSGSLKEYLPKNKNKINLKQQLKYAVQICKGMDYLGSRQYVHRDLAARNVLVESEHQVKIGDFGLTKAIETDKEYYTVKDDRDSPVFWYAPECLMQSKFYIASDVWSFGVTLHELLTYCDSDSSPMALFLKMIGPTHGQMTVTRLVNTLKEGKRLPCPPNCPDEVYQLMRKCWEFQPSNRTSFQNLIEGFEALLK

Row | SMILES | IC50 (JAK2) [nM] | IC50 (JAK1) [nM] | JAK2/JAK1 (JAK1) | IC50 (hERG potassium channel) [µM] | Paw swelling rate_1 h (%) (Sprague-Dawley (SD) mice) | Paw swelling rate_2 h (%) (Sprague-Dawley (SD) mice) | Paw swelling rate_4 h (%) (Sprague-Dawley (SD) mice) | Paw swelling rate_6 h (%) (Sprague-Dawley (SD) mice)
1 | COc1nsc(NC(=O)N2C[C@H]3C[C@H](N(C)c4c(C#N)cnc5[nH]ccc45)C[C@H]3C2)n1 [Compound H07, (3aR,5s,6aS)-4-({2-[(3-methoxy-1,2,4-thiadiazole-5-yl)carbamoyl]-hexahydrocyclopenta[c]pyrrole-5-yl}-methyl-amino)-1H-pyrrolo[2,3-b]pyridin-5-carbonitrile] | – | – | – | > 30 | 25.20 ± 2.10 | 32.10 ± 1.70 | 22.30 ± 4.20 | 21.30 ± 4.20
2 | CCCS(=O)(=O)N[C@H]1C[C@@H](N(C)c2c(C#N)cnc3[nH]ccc23)C1 [Compound H14, (cis)-4-{[3-(propanesulfonamido)-cyclobutyl-1-yl]-methyl-amino}-1H-pyrrolo[2,3-b]pyridin-5-carbonitrile] | 9.95 | 1.78 | 5.59 | > 30 | 32.10 ± 5.20 | 25.90 ± 5.00 | 25.50 ± 4.00 | 25.10 ± 4.20
3 | C[C@@H]1CCN(C(=O)CC#N)C[C@@H]1N(C)c1c(C#N)cnc2[nH]ccc12 [Compound H11, 4-{[(3R,4R)-1-(2-cyanoacetyl)-4-methylpiperidin-3-yl]-methyl-amino}-1H-pyrrolo[2,3-b]pyridin-5-carbonitrile] | 9.86 | 1.28 | 7.70 | – | 23.50 ± 2.40 | 25.80 ± 3.30 | 31.00 ± 2.10 | 32.00 ± 2.10
4 | N#Cc1cnc2[nH]ccc2c1N[C@H]1C[C@@H](NS(=O)(=O)CCC(F)(F)F)C1 [Compound H12, (cis)-4-{[3-(3,3,3-trifluoropropanesulfonamido)-cyclobutyl-1-yl]-amino}-1H-pyrrolo[2,3-b]pyridin-5-carbonitrile] | 7.63 | 0.56 | – | > 30 | 28.90 ± 2.00 | 23.10 ± 3.00 | 24.00 ± 2.90 | 24.00 ± 3.00
5 | COc1nsc(NC(=O)N[C@H]2C[C@@H](N(C)c3c(C#N)cnc4[nH]ccc34)C2)n1 [Compound H29, (cis)-1-(3-((5-cyano-1H-pyrrolo[2,3-b]pyridin-4-yl)(methyl)amino)cyclobutyl)-3-(3-methoxy-1,2,4-thiadiazole-5-yl)urea] | 6.8 | 0.36 | 18.89 | – | 23.70 ± 1.60 | 23.20 ± 2.60 | 32.20 ± 3.50 | 29.20 ± 3.50
6 | CN(c1c(C#N)cnc2[nH]ccc12)[C@H]1C[C@@H](NS(=O)(=O)CCC(F)(F)F)C1 [Compound H15, (cis)-4-{[3-(3,3,3-trifluoropropanesulfonamide)-cyclobutyl-1-yl]-methyl-amino}-1H-pyrrolo[2,3-b]pyridin-5-carbonitrile] | 16.6 | 2.36 | 7.03 | – | 24.50 ± 2.50 | 25.90 ± 3.40 | 32.00 ± 2.30 | 31.00 ± 2.30

Continued, in another order:

Row | IC50 (JAK2) [nM] | IC50 (JAK1) [nM] | JAK2/JAK1 (JAK1) | SMILES | IC50 (hERG potassium channel) [µM] | Paw swelling rate_1 h (%) (Sprague-Dawley (SD) mice) | Paw swelling rate_2 h (%) (Sprague-Dawley (SD) mice) | Paw swelling rate_4 h (%) (Sprague-Dawley (SD) mice) | Paw swelling rate_6 h (%) (Sprague-Dawley (SD) mice)
7 | 6.7 | 0.56 | 11.96 | CN(c1c(C#N)cnc2[nH]ccc12)[C@H]1C[C@@H]2CN(C(=O)Nc3ccc(Cl)c(C(F)(F)F)c3)C[C@@H]2C1 [Compound H25, (3aR,5s,6aS)-N-(4-chloro-3-(trifluoromethyl)phenyl)-5-((5-cyano-1H-pyrrolo[2,3-b]pyridin-4-yl)(methyl)amino)hexahydrocyclopentadiene[c]pyrrole-2(1H)-carboxamide] | > 30 | 32.10 ± 5.20 | 26.90 ± 5.00 | 24.50 ± 4.00 | 24.50 ± 4.00
8 | 6.4 | 0.57 | 11.23 | CC(C)c1nsc(NC(=O)N2C[C@H]3C[C@H](N(C)c4c(C#N)cnc5[nH]ccc45)C[C@H]3C2)n1 [Compound H30, (3aR,5s,6aS)-4-({2-[(3-isopropyl-1,2,4-thiadiazole-5-yl)carbamoyl]-hexahydrocyclopenta[c]pyrrole-5-yl}-methyl-amino)-1H-pyrrolo[2,3-b]pyridin-5-carbonitrile] | > 30 | 24.40 ± 2.40 | 25.20 ± 3.40 | 26.00 ± 2.30 | 24.50 ± 2.30
9 | 21 | 0.35 | 60.00 | N#Cc1cnc2[nH]ccc2c1N1CC2CN(C(=O)NCC(F)(F)F)CC21 (stereo not shown) [Compound H39, 6-(5-cyano-1H-pyrrolo[2,3-b]pyridin-4-yl)-N-(2,2,2-trifluoroethyl)-3,6-diazabicyclo[3.2.0]heptane-3-carboxamide] | > 30 | 31.10 ± 2.30 | 25.60 ± 4.00 | 26.30 ± 3.30 | 25.30 ± 3.30
10 | 5.8 | 0.35 | 16.40 | CN(c1c(C#N)cnc2[nH]ccc12)[C@H]1C[C@@H]2CN(C(=O)NCC(F)(F)F)C[C@@H]2C1 [Compound H22, (3aR,5s,6aS)-4-({2-[(2,2,2-trifluoroethyl)-carbamoyl]-hexahydrocyclopenta[c]pyrrole-5-yl}-methyl-amino)-1H-pyrrolo[2,3-b]pyridin-5-carbonitrile] | – | 29.80 ± 2.00 | 29.10 ± 3.00 | 31.00 ± 2.90 | 31.00 ± 2.90
11 | 5.7 | 0.65 | 8.77 | CN(C)c1nsc(NC(=O)N2C[C@H]3C[C@H](N(C)c4c(C#N)cnc5[nH]ccc45)C[C@H]3C2)n1 [Compound H33, (3aR,5s,6aS)-4-({2-[(3-dimethylamino-1,2,4-thiadiazole-5-yl)carbamoyl]-hexahydrocyclopenta[c]pyrrole-5-yl}-methyl-amino)-1H-pyrrolo[2,3-b]pyridin-5-carbonitrile] | – | 27.80 ± 2.00 | 29.20 ± 3.10 | 30.10 ± 2.90 | 30.10 ± 2.90
